According to the supplement of paper PMC10307832:

How the values were obtained:
Assay in all cases: relative viability (nuclei count vs DMSO), 5 days (fraction); higher = more cells survive
NCI-H596 = tested on: NCI-H596
Procedure, shortened: (§1)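 Five library-drug doses in √10 steps were combined with a fixed anchor-drug dose, or a single drug was given alone, by pin tool to lung cancer cell lines in 1536-well plates the day after seeding. Nuclei were stained and counted after 5 days. Relative viability is the nuclei count in treated wells over that in vehicle wells, taken as the median of duplicate plates.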

NCI-H1755 = tested on: NCI-H1755
Procedure, shortened: as §1

LK-2 = tested on: LK-2
Procedure, shortened: as §1

NCI-H520 = tested on: NCI-H520
Procedure, shortened: as §1

EMC-BAC-2 = tested on: EMC-BAC-2
Procedure, shortened: as §1

A-427 = tested on: A-427
Procedure, shortened: as §1

NCI-H23 = tested on: NCI-H23
Procedure, shortened: as §1

PC-3 [JPC-3] = tested on: PC-3 [JPC-3]
Procedure, shortened: as §1

SK-MES-1 = tested on: SK-MES-1
Procedure, shortened: as §1

EKVX = tested on: EKVX
Procedure, shortened: as §1

H3255 = tested on: H3255
Procedure, shortened: as §1

NCI-H1975 = tested on: NCI-H1975
Procedure, shortened: as §1

LOU-NH91 = tested on: LOU-NH91
Procedure, shortened: as §1

NCI-H1734 = tested on: NCI-H1734
Procedure, shortened: as §1

NCI-H2170 = tested on: NCI-H2170
Procedure, shortened: as §1

NCI-H1666 = tested on: NCI-H1666
Procedure, shortened: as §1

HCC-366 = tested on: HCC-366
Procedure, shortened: as §1

COR-L 105 = tested on: COR-L 105
Procedure, shortened: as §1

NCI-H1563 = tested on: NCI-H1563
Procedure, shortened: as §1

Compound: CCN(CC)CCCCNc1ncc2cc(-c3cc(OC)cc(OC)c3)c(NC(=O)NC(C)(C)C)nc2n1 + CS(=O)(=O)CCNCc1ccc(-c2ccc3ncnc(Nc4ccc(OCc5cccc(F)c5)c(Cl)c4)c3c2)o1 [Lapatinib] (partner 2 µM)
- relative viability (NCI-H596; first compound 0.01 µM): 0.967
- relative viability (NCI-H596; first compound 0.03162 µM): 1.04
- relative viability (NCI-H596; first compound 0.1 µM): 1.11
- relative viability (NCI-H596; first compound 0.3162 µM): 0.977
- relative viability (NCI-H596; first compound 1 µM): 0.854
- relative viability (NCI-H1755; first compound 0.01 µM): 1.12
- relative viability (NCI-H1755; first compound 0.03162 µM): 1.06
- relative viability (NCI-H1755; first compound 0.1 µM): 1.04
- relative viability (NCI-H1755; first compound 0.3162 µM): 1.16
- relative viability (NCI-H1755; first compound 1 µM): 0.793
- relative viability (LK-2; first compound 0.01 µM): 0.98
- relative viability (LK-2; first compound 0.03162 µM): 0.814
- relative viability (LK-2; first compound 0.1 µM): 0.966
- relative viability (LK-2; first compound 0.3162 µM): 0.645
- relative viability (LK-2; first compound 1 µM): 0.303
- relative viability (NCI-H520; first compound 0.01 µM): 1.07
- relative viability (NCI-H520; first compound 0.03162 µM): 0.946
- relative viability (NCI-H520; first compound 0.1 µM): 1.11
- relative viability (NCI-H520; first compound 0.3162 µM): 0.792
- relative viability (NCI-H520; first compound 1 µM): 0.308
- relative viability (EMC-BAC-2; first compound 0.01 µM): 0.946
- relative viability (EMC-BAC-2; first compound 0.03162 µM): 0.941
- relative viability (EMC-BAC-2; first compound 0.1 µM): 0.961
- relative viability (EMC-BAC-2; first compound 0.3162 µM): 0.999
- relative viability (EMC-BAC-2; first compound 1 µM): 0.859
- relative viability (A-427; first compound 0.01 µM): 1.15
- relative viability (A-427; first compound 0.03162 µM): 0.971
- relative viability (A-427; first compound 0.1 µM): 1.08
- relative viability (A-427; first compound 0.3162 µM): 1.1
- relative viability (A-427; first compound 1 µM): 0.899
- relative viability (NCI-H23; first compound 0.01 µM): 1.09
- relative viability (NCI-H23; first compound 0.03162 µM): 1.12
- relative viability (NCI-H23; first compound 0.1 µM): 1.36
- relative viability (NCI-H23; first compound 0.3162 µM): 1.1
- relative viability (NCI-H23; first compound 1 µM): 0.961
- relative viability (PC-3 [JPC-3]; first compound 0.01 µM): 0.479
- relative viability (PC-3 [JPC-3]; first compound 0.03162 µM): 0.453
- relative viability (PC-3 [JPC-3]; first compound 0.1 µM): 0.519
- relative viability (PC-3 [JPC-3]; first compound 0.3162 µM): 0.538
- relative viability (PC-3 [JPC-3]; first compound 1 µM): 0.446
- relative viability (SK-MES-1; first compound 0.01 µM): 0.518
- relative viability (SK-MES-1; first compound 0.03162 µM): 0.456
- relative viability (SK-MES-1; first compound 0.1 µM): 0.542
- relative viability (SK-MES-1; first compound 0.3162 µM): 0.455
- relative viability (SK-MES-1; first compound 1 µM): 0.354
- relative viability (EKVX; first compound 0.01 µM): 0.187
- relative viability (EKVX; first compound 0.03162 µM): 0.181
- relative viability (EKVX; first compound 0.1 µM): 0.178
- relative viability (EKVX; first compound 0.3162 µM): 0.207
- relative viability (EKVX; first compound 1 µM): 0.207
- relative viability (H3255; first compound 0.01 µM): 0.26
- relative viability (H3255; first compound 0.03162 µM): 0.235
- relative viability (H3255; first compound 0.1 µM): 0.25
- relative viability (H3255; first compound 0.3162 µM): 0.258
- relative viability (H3255; first compound 1 µM): 0.227
- relative viability (NCI-H1975; first compound 0.01 µM): 1.02
- relative viability (NCI-H1975; first compound 0.03162 µM): 0.882
- relative viability (NCI-H1975; first compound 0.1 µM): 0.952
- relative viability (NCI-H1975; first compound 0.3162 µM): 1.12
- relative viability (NCI-H1975; first compound 1 µM): 0.693
- relative viability (LOU-NH91; first compound 0.01 µM): 0.664
- relative viability (LOU-NH91; first compound 0.03162 µM): 0.746
- relative viability (LOU-NH91; first compound 0.1 µM): 0.824
- relative viability (LOU-NH91; first compound 0.3162 µM): 0.885
- relative viability (LOU-NH91; first compound 1 µM): 0.737
- relative viability (NCI-H1734; first compound 0.01 µM): 1.06
- relative viability (NCI-H1734; first compound 0.03162 µM): 1.2
- relative viability (NCI-H1734; first compound 0.1 µM): 1.39
- relative viability (NCI-H1734; first compound 0.3162 µM): 1.13
- relative viability (NCI-H1734; first compound 1 µM): 1.02
- relative viability (NCI-H2170; first compound 0.01 µM): 0.282
- relative viability (NCI-H2170; first compound 0.03162 µM): 0.269
- relative viability (NCI-H2170; first compound 0.1 µM): 0.298
- relative viability (NCI-H2170; first compound 0.3162 µM): 0.271
- relative viability (NCI-H2170; first compound 1 µM): 0.276
- relative viability (NCI-H1666; first compound 0.01 µM): 0.819
- relative viability (NCI-H1666; first compound 0.03162 µM): 0.62
- relative viability (NCI-H1666; first compound 0.1 µM): 0.604
- relative viability (NCI-H1666; first compound 0.3162 µM): 0.684
- relative viability (NCI-H1666; first compound 1 µM): 0.498
- relative viability (HCC-366; first compound 0.01 µM): 1.05
- relative viability (HCC-366; first compound 0.03162 µM): 1.07
- relative viability (HCC-366; first compound 0.1 µM): 1.73
- relative viability (HCC-366; first compound 0.3162 µM): 1.27
- relative viability (HCC-366; first compound 1 µM): 1.06
- relative viability (COR-L 105; first compound 0.01 µM): 0.386
- relative viability (COR-L 105; first compound 0.03162 µM): 0.361
- relative viability (COR-L 105; first compound 0.1 µM): 0.399
- relative viability (COR-L 105; first compound 0.3162 µM): 0.422
- relative viability (COR-L 105; first compound 1 µM): 0.387
- relative viability (NCI-H1563; first compound 0.01 µM): 0.884
- relative viability (NCI-H1563; first compound 0.03162 µM): 0.895
- relative viability (NCI-H1563; first compound 0.1 µM): 0.849
- relative viability (NCI-H1563; first compound 0.3162 µM): 0.792
- relative viability (NCI-H1563; first compound 1 µM): 0.621
